# According to a melting point compilation (Tetko et al.; mined from patent text by program, amines drawn as free bases though some values may be those of a salt):
row,Structure (SMILES),melting point
1,CC(C)(C)C(O)C(C(CC#N)c1ccccc1)n1ccnc1 (centres undefined),212 to 228 °C
2,Nc1cccc(Nc2cccc(N)n2)n1,171 to 173 °C
3,CC(=O)N1C(C(=O)c2cn(C(=O)OC(C)(C)C)c3ccccc23)CSC1c1cccnc1 (centres undefined),141 to 143 °C
4,CCOC(=O)c1cc(Cl)c(F)c(Cl)c1,59.5 to 60 °C
5,CCOC(=O)CN=C1N[C@](C)(Cc2ccc(Br)cc2)C(=O)N1c1cc(Cl)cc(Cl)c1,103 to 105 °C
6,Cc1nn(C)c2nc(N(CC3CCC3)CC3CC3)c(CN(Cc3cc(C(F)(F)F)cc(C(F)(F)F)c3)c3nnn(C)n3)cc12,84 to 85 °C
7,NS(=O)(=O)c1ccccc1OCCO,94 to 99 °C
8,CCc1nc2cccc(C)c2c(=O)n1C1CCC(=O)NC1=O (centres undefined),228 to 230 °C
9,CCC(CC)/C(N)=C(\C#N)C(=O)OC(C)C,140 °C
10,O=C1CCC(c2ccccc2)(N2CCOCC2)CC1,116 to 119 °C
11,O=C(O)c1ccc(COc2ccccc2-c2cc(O)c(SCCc3ccccc3)c(=O)o2)cc1,227 °C
12,CCC(C)(C)OC(=O)OOC1CC(C)(C)N(C(C)=O)C(C)(C)C1,70 to 73 °C
13,CC(C)Oc1ccc(CCCOc2cc(CCC(=O)O)n(C)n2)c(OCc2ccc(C(F)(F)F)cc2)c1,88 to 89 °C
14,Fc1cc(Cl)c(OC2CCCC2)cc1-n1nc2c(c1Cl)CCCC2,88 to 91 °C
15,Cc1cc(Nc2ccc(NC(=O)c3ccc(Nc4ccnc5ccc(Cl)cc45)cc3)cc2)nc(N)n1,250 to 254 °C
16,CCCCCCc1ccc(-c2ccc(-c3ccc(CCCCC)cc3)c(F)c2)s1,44 °C
17,CCCCc1ncc(C/C=C/C(N)(Cc2cccs2)C(=O)O)n1Cc1ccc(C(=O)O)cc1 (centres undefined),223 to 224 °C
18,COC(=O)c1cn(-c2c(Cl)cc(Cl)cc2Cl)nc1C(F)(F)F,107 to 108 °C
19,O=C(O)CC1c2ccccc2C(=O)N1c1ccccc1 (centres undefined),204 to 205 °C
20,CCN(CCNC(=O)c1n[nH]cc1NC(=O)c1cccc(C)n1)c1cccc(C)c1,203 to 205 °C
21,CCn1c(CO)nc(C(C)C)c1Sc1cc(F)cc(F)c1,102 to 104 °C
22,CN(C)C(=O)Cc1ccc2c(c1)sc1nc(=O)cc(-c3ccccc3)n12,238 to 240 °C
23,Nc1ncnc2c1c(-c1cc(O)cc(F)c1)nn2Cc1oc2cccc(F)c2c(=O)c1-c1cccc(F)c1,136 to 138 °C
24,COc1cc2c3ccc(OC)c(OC)c3n(CCCc3ccccc3)c2cc1OC,116 to 118 °C
25,COc1ccccc1N1CCN(CCCNC(=O)Cc2cccc3c(=O)c(C)c(-c4ccccc4)oc23)CC1,137 to 140 °C

row,Structure (SMILES),melting point
1,COc1ccc(-c2nnc(Nc3ccc(Cl)c(Cl)c3)s2)cc1OCc1ccccc1,223 to 224 °C
2,CNS(=O)(=O)NC(C)C,50 to 52 °C
3,COc1cc(Nc2nccc(-c3c[nH]c4ccccc34)n2)cc(OC)c1OC,197 °C
4,COc1cc(OC)nc(NC(=O)NS(=O)(=O)Oc2ccccc2)n1,136 to 139 °C
5,COCCOc1ccc(/C=C/C(=O)O)c(OCc2nc(-c3ccccc3)oc2C)c1,194 to 196 °C
6,COCCc1cnc(Cl)nc1,25 to 26 °C
7,CNC(=O)C(Cc1ccc([N+](=O)[O-])cc1)NC(=O)Nc1n[nH]c(=S)s1 (centres undefined),228 to 230 °C
8,COc1ccc(Oc2ccccc2)c(NS(=O)(=O)C(F)(F)F)c1,57 to 58 °C
9,COC(=O)c1ccc2cc(CCc3cc4c(C(=O)OC)cccc4o3)oc2c1,175 to 177 °C
10,CN(C)C(=O)c1nc(-c2cccc3ccccc23)no1,109 to 110 °C
11,Cn1cncc1CCNC(=O)c1[nH]c2ccc(Cl)cc2c1S(=O)(=O)c1ccccc1,257 to 258 °C
12,O=C(O)COc1cc(C(=O)O)nc2ccc(Cl)cc12,260 °C
13,c1ccc(C2(N3CCC(n4c(OC5CCNCC5)nc5ccccc54)CC3)CCCCCC2)cc1,114 to 118 °C
14,CN(C)c1ccc(C=CC(C=C(c2ccc(N(C)C)cc2)c2ccc(N(C)C)cc2)C=C(c2ccc(N(C)C)cc2)c2ccc(N(C)C)cc2)cc1,78 to 82 °C
15,COc1ccc(-c2[nH]cnc2-c2cc(OC)c(N)c(OC)c2)cc1N,140 to 142 °C
16,COc1ccc(N)c(C(=O)CS(=O)(=O)N(C)C)c1,198 to 200 °C
17,COc1ccc(NC(=O)c2c(Cl)cccc2Cl)c2nccc(N3CCN(C)C3=O)c12,227 to 237 °C
18,CC(CC(=O)O)Oc1ccc(Oc2ccccc2)c(NS(C)(=O)=O)c1 (centres undefined),121 to 124 °C
19,CN1CCN(c2cc(F)cc3c(=O)cc(C(=O)Nc4ccc(N5CCN(C(=O)OC(C)(C)C)CC5)cc4)oc23)CC1,219 to 220 °C
20,Nc1cc([N+](=O)[O-])c(Cl)cc1F,82 to 83.5 °C
21,O=C(N[C@H](Cc1ccc(F)cc1)[C@@H](O)c1ccc(C(F)(F)F)cc1)C1CCCCC1 (racemic),220 to 221 °C
22,CCOC(=O)NN(C)C(=S)Nc1ccc(Cl)cc1F,151 °C
23,CC(=O)c1cc2c(c(O)c1Cl)C(C)(C)CC2(C)C,78 to 80 °C
24,COC(=O)c1ccc(Cc2cccc3ccc(C#N)cc23)c(OC)c1,138 to 140 °C
25,Cc1ccc(C(=O)Nc2c[nH]nc2C(=O)NCCC#N)cn1,201 to 203 °C

row,Structure (SMILES),melting point
1,NC(=O)c1ccc(CCn2ccn(C3CCc4ccccc4C3)c2=S)cc1 (centres undefined),158 to 160 °C
2,CC(C)CCCC(C)CCCC(C)CCOc1ccc(C(=O)O)o1 (centres undefined),70 to 73 °C
3,COc1cc2c3ccc(OC)c(OC)c3n(Cc3ccc(C(F)(F)F)cc3)c2cc1OC,145 to 146 °C
4,Cn1cc(C(=O)N=C=O)c([N+](=O)[O-])n1,55 to 59 °C
5,O=C(O)c1ccc2c(c1)S(=O)(=O)c1ccccc1S2=O (centres undefined),340 to 343 °C
6,N#C/C=C/c1cccc(Cl)c1,26 to 28 °C
7,CCN1C(=O)C(C(=O)Nc2ccccc2S(C)=O)c2cc3c(cc21)CCO3 (centres undefined),137 to 138 °C
8,COc1c(Oc2ccccc2C)cccc1C(N)C(=O)O (centres undefined),169 to 170 °C
9,O=C1N[C@H](C(=O)NCCO[N+](=O)[O-])CO1,102 to 103 °C
10,CCCCc1nc2c(C(=O)O)cccc2n1Cc1ccc(C(=O)O)cc1,250 °C
11,CC1(C)CC(=O)C(S(=O)(=O)Cc2ccc(Cl)cc2)=C(O)C1,111 to 113 °C
12,CCOC(=O)c1[nH]c2ccc(F)cc2c1N,77 to 78 °C
13,Cn1cc(CO)c2c3c(c(-c4ccccc4Cl)cc21)C(=O)NC3=O,270 to 274 °C
14,COCCn1c(Oc2ccc(-n3c4ncccc4n4ccnc34)cc2)nc2cccnc21,178 to 182 °C
15,O=C(/C=C/c1ccc(C(=O)Nc2cccc(Nc3nc(-c4cccnc4)cs3)c2)cc1)NOC1CCCCO1 (centres undefined),158 °C
16,CCCC(=O)c1cnc2ccc(O)cc2c1Cl,157 to 160 °C
17,CCN1C(=O)C(C)=C2C[C@@]3(C)C(=C[C@@H](OC)[C@H](O)[C@@H]3C)C=C21,151 to 154 °C
18,CCOC(=O)NS(=O)(=O)c1ccc2c(c1)C(=O)CO2,118 to 119 °C
19,COc1ccccc1C(=O)Nc1ccccc1C(c1ccc(O)cc1)c1ccc(O)cc1,258 °C
20,CC(C)(C)C(NC(=O)c1cccc(Cl)c1)Nc1c(Nc2cnccn2)c(=O)c1=O (centres undefined),245 to 247 °C
21,CCCc1c(OCC(O)CSCCN(C)C)ccc(C(C)=O)c1O (centres undefined),54 to 55 °C
22,COc1ccc(CC[C@H]2CN(Cc3ccccc3)CCN2Cc2ccccc2)cc1,88 to 91 °C
23,NC(=O)Cc1cccc(Cn2ccc(OCc3ccc(F)cc3F)c(Br)c2=O)c1,164 to 167 °C
24,CCCCC1(N2CCCC2)CC=C(c2[nH]c3ccccc3c2CCc2ccncc2)CC1 (centres undefined),187 to 195 °C
25,CCCCCc1c(C=O)sc2cc(OC)ccc12,44 to 46 °C

row,Structure (SMILES),melting point
1,CCOCCCNC(=O)C(C)(C(C)C)C(C)C,30 °C
2,Cc1noc(NS(=O)(=O)c2ccc(NCCc3ccccc3)cc2-c2ccc(CC(C)C)cc2)c1C,68 to 71 °C
3,Nc1nc2c(Cl)ncnc2n1C1OC(CO)C(O)C1O (centres undefined),214 to 217 °C
4,CSc1nsc(N)c1C#N,188 to 189 °C
5,CCCc1c(OCCCCCC(=O)c2cc(O)c(O)c(C(C)C)c2)ccc(C(=O)O)c1O,169 to 171 °C
6,COc1ccc2c(c1CCc1ccccc1)CCCC2=O,102 to 105 °C
7,CCS(=O)c1cc2c(cc1OC)CCn1c3c(c(Br)c1-2)CCCCN(C(C)(C)C)C3=O (centres undefined),140 to 145 °C
8,COc1cc(Nc2c(C#N)cnc3cc(-c4cc(CN5CCOCC5)c(CN5CCOCC5)s4)ccc23)c(Cl)cc1Cl,118 to 125 °C
9,CC(C)(C)C1=C(C(=O)OCc2ccc([N+](=O)[O-])cc2)N2C(=O)C(C)(C)C2O1 (centres undefined),119 to 120 °C
10,Cc1cc(-n2ccnc2)c2cccc(OCc3c(Cl)ccc(S(=O)(=O)N4CCOCC4)c3Cl)c2n1,148 °C
11,O=[N+]([O-])c1c(Cl)nc2ccccc2c1NCc1ccccn1,179 to 182 °C
12,COc1cc(CCNC(=O)[C@@H](NC(=O)OC(C)(C)C)C(C)C)ccc1OCc1ccccc1,115 to 118 °C
13,CCc1cc(C(C)=O)nn1-c1ccc([N+](=O)[O-])cc1,93 to 95 °C
14,COc1cccc(OC)c1CNC(=O)c1ccc2c(c1)C(=NNc1ccc(S(N)(=O)=O)cc1)C(=O)N2,> 250 °C
15,COc1ccc(-c2nc(-c3ncc4c(n3)CCCC4)ccc2C)nc1,157 to 158 °C
16,Clc1ccc(C(Cl)(Cl)Cl)cn1,51 to 54 °C
17,C=C(CN1C(=O)c2ccccc2C1=O)c1ccccc1,118 to 121 °C
18,Cn1c2ccc(F)cc2c(=O)n2nc(C#N)cc12,331 to 340 °C
19,CCCN(CCC)C(=O)CNc1nc(-c2ccccc2)nc(C)c1CC,83 to 84 °C
20,OCC12CC(c3ccccc31)c1ccccc12,165 to 166 °C
21,CC(C)c1cc(C(=O)Nc2ccc(C(=O)O)c(F)c2)sc1C(C)C,133 to 135 °C
22,CC(=C(C#N)C#N)c1ccc2cc(N3CCN(C(=O)OC(C)(C)C)CC3)ccc2c1,169 to 171 °C
23,COc1ccc(C[C@@H](NC(=O)C2CCCCC2)[C@@H](O)c2ccc(F)cc2)cc1 (racemic),193 to 194 °C
24,CCOC(=O)C1=Cc2cc(Cl)cc(C#N)c2OC1C(F)(F)F (centres undefined),115 to 116 °C
